# Results taken from ChEMBL document CHEMBL5236544, “Furazans in Medicinal Chemistry” (J Med Chem, 2021).
# Assays:
# HCT-116 = assay: Antiproliferative activity against human HCT-116 cells assessed as reduction in cell viability by MTT assay; type: functional, cell-based
# [1] = tested on: Respiratory syncytial virus; assay: Antiviral activity against RSV; type: functional, organism-based; conditions: human respiratory syncytial virus
# [2] = biological target: Cyclin-dependent kinase inhibitor 1 (Homo sapiens, UniProt P38936); assay: Inhibition of p21 (unknown origin)
# Haemophilus influenzae = assay: Antibacterial activity against Haemophilus influenzae assessed as reduction in bacterial growth by broth microdilution method; type: functional
# Staphylococcus aureus = assay: Antibacterial activity against Staphylococcus aureus assessed as reduction in bacterial growth by broth microdilution method; type: functional
# Streptococcus pneumoniae = assay: Antibacterial activity against Streptococcus pneumoniae assessed as reduction in bacterial growth by broth microdilution method; type: functional
# K562 = assay: Antiproliferative activity against human K562 cells assessed as reduction in cell viability measured after 48 hrs by MTT assay; type: functional, cell-based; conditions: K562, 48 h
# [3] = Half life in mouse; type: ADME, organism-based; conditions: in vivo
# Jurkat = assay: Antiproliferative activity against human Jurkat cells assessed as reduction in cell viability measured after 48 hrs by MTT assay; type: functional, cell-based
# HEL = assay: Antiproliferative activity against human HEL cells assessed as reduction in cell viability measured after 48 hrs by MTT assay; type: functional, cell-based
# Histamine H2 receptor = Histamine H2 receptor (Homo sapiens, UniProt P25021); assay: Antagonist activity at histamine H2 receptor (unknown origin) assessed as inhibition constant
# HeLa = assay: cells; conditions: Homo sapiens
# Description: Antiproliferative activity against human HeLa cells assessed as reduction in cell viability
# [4] = Inhibition of GSK3 (unknown origin); design: species or system Homo sapiens
# [5] = Inhibition of p70S6K (unknown origin); design: species or system Homo sapiens
# [6] = biological target: Ribosomal protein S6 kinase alpha-1 (Homo sapiens, UniProt Q15418); assay: Inhibition of RSK1 (unknown origin)
# [7] = Inhibition of ROMK (unknown origin); design: species or system Homo sapiens
# [8] = Stability in rat assessed as intrinsic clearance; type: ADME; conditions: CLH
# [9] = biological target: T1, Amyloid-beta precursor protein (Homo sapiens, UniProt P05067); assay: Inhibition of amyloid beta (unknown origin) at 5 uM relative to control
# [10] = biological target: Microtubule-associated protein tau (Homo sapiens) (UniProt P10636); assay: Inhibition of tau (unknown origin) at 5 uM relative to control
# [11] = Inhibition of LPS induced TNF-alpha secretion in human THP-1 cells pretreated with LPS for 1 hr followed by compound addition and measured after 3 hrs by ELISA method; type: functional, cell-based
# Rattus norvegicus [12] = organism: Rattus norvegicus; assay: Antihypertensive activity in spontaneously hypertensive rat model assessed as reduction in systemic arterial pressure; type: functional
# HASMC = assay: Antiproliferative activity against human HASMC cells assessed as inhibition of cell proliferation measured after 24 hrs by MTT assay; type: functional, cell-based
# Rattus norvegicus [13] = organism: Rattus norvegicus; assay: Antihypertensive activity in spontaneously hypertensive rat model assessed as reduction in pulmonary arterial pressure; type: functional
# HL-60 = assay: Antiproliferative activity against (unknown origin) HL-60 assessed as inhibition of cell proliferation by MTT assay; type: functional, cell-based; conditions: Homo sapiens
# Daudi = assay: Antiproliferative activity against human Daudi assessed as inhibition of cell proliferation by MTT assay; type: functional, cell-based
# c-Myc/c-Max = c-Myc/c-Max (Homo sapiens, UniProt P01106+P61244); assay: Inhibition of Myc/Max (unknown origin); type: protein assay
# Rattus norvegicus [14] = organism: Rattus norvegicus; assay: Anti-inflammatory activity against ovalbumin induced lung inflammatory rat model assessed as reduction in eosinophil influx; type: functional
# Mus musculus = organism: Mus musculus; assay: Anti-inflammatory activity in LPS-induced inflammatory mouse model assessed as reduction in neutrophil influx; type: functional
# [15] = Anti-inflammatory activity against human PBMCs assessed as reduction in LPS-induced TNF-alpha release by ELISA analysis; type: functional, cell-based; conditions: PBMC
# BaF3 = assay: Antiproliferative activity against mouse BaF3 cells transfected with FLT3-ITD assessed as cell growth inhibition; type: functional, cell-based
# MDR1 = assay: Efflux ratio of permeability in dog MDCK-MDR1 cells; type: ADME, cell-based, Canis lupus familiaris
# NT2 = assay: Inhibition of camptothecin induced apoptosis in human NT2 cells incubated for 5 hrs in presence of camptothecin by ELISA method; type: functional, cell-based; conditions: NT2, 5 h
# [16] = Inhibition of human recombinant LDH
# [17] = Binding affinity to Plasmodium falciparum LDH assessed as inhibitory constant
# Lactate dehydrogenase = Lactate dehydrogenase (Plasmodium falciparum, UniProt Q0PJ46); assay: Inhibition of recombinant Plasmodium falciparum LDH
# Plasmodium falciparum [18] = assay: Antimalarial activity against drug resistant Plasmodium falciparum KI; type: functional, organism-based
# Plasmodium falciparum [19] = assay: Antimalarial activity against drug sensitive Plasmodium falciparum 3D7; type: functional, organism-based
# [20] = biological target: T1, Amyloid-beta precursor protein; assay: Inhibition of amyloid beta (unknown origin) aggregation at 10 uM relative to control
# [21] = Inhibition of HIF (unknown origin); design: species or system Homo sapiens
# physchem = conditions: octanol/water
# Description: Lipophilicity, log P of the compound
# [22] = Binding affinity to human wild type HIF2alpha assessed as dissociation constant by calorimetry assay
# T1 sequence (P05067 whole entry): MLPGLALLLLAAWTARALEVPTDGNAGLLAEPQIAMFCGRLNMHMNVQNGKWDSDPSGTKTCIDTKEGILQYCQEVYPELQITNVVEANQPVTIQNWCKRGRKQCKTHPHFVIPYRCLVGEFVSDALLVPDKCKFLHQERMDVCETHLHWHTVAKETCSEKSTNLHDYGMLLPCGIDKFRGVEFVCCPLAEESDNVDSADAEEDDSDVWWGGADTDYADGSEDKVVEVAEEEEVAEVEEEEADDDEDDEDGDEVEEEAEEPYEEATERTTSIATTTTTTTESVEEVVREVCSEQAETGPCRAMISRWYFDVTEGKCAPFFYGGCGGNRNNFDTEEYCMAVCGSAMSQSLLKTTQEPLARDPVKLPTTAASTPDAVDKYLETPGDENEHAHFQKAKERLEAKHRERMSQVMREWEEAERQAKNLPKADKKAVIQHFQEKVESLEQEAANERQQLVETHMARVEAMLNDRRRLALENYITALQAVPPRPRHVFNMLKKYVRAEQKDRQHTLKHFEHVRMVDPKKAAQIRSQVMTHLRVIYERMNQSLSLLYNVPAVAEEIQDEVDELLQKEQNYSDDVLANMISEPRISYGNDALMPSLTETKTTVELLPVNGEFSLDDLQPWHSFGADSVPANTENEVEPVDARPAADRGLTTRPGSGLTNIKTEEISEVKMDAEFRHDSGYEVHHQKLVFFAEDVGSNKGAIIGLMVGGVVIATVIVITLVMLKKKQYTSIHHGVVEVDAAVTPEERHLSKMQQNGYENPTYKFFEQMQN
# Histamine H2 receptor, sequence (P25021 whole entry): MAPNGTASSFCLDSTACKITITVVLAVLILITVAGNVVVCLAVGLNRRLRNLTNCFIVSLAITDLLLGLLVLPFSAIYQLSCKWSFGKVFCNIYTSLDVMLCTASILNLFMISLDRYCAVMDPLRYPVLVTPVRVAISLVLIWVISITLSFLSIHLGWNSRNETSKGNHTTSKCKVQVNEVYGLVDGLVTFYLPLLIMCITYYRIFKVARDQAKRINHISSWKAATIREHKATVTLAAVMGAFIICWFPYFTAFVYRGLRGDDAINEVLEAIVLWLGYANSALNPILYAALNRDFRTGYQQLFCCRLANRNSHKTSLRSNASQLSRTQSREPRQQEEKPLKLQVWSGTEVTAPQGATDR
# Ribosomal protein S6 kinase alpha-1, sequence (Q15418 whole entry): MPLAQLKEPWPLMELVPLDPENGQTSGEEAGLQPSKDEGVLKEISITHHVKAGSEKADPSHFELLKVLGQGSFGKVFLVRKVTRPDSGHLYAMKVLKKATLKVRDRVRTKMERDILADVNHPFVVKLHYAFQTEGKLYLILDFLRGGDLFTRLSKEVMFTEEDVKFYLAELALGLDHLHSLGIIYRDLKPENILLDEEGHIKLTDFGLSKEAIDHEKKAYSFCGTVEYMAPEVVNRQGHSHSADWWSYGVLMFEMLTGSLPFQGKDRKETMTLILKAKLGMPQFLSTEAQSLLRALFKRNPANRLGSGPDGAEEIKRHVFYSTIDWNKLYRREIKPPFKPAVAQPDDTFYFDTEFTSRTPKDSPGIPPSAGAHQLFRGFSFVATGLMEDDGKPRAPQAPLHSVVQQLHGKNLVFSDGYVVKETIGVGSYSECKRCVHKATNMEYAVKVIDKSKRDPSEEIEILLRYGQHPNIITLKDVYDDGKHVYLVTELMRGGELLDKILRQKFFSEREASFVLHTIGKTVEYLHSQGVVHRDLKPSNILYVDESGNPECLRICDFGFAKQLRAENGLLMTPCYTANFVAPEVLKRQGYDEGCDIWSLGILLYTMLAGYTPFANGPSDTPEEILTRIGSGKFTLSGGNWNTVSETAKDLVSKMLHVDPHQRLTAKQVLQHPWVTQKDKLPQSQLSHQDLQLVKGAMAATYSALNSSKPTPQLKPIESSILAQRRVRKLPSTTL
# Microtubule-associated protein tau (Homo sapiens), sequence (P10636 whole entry): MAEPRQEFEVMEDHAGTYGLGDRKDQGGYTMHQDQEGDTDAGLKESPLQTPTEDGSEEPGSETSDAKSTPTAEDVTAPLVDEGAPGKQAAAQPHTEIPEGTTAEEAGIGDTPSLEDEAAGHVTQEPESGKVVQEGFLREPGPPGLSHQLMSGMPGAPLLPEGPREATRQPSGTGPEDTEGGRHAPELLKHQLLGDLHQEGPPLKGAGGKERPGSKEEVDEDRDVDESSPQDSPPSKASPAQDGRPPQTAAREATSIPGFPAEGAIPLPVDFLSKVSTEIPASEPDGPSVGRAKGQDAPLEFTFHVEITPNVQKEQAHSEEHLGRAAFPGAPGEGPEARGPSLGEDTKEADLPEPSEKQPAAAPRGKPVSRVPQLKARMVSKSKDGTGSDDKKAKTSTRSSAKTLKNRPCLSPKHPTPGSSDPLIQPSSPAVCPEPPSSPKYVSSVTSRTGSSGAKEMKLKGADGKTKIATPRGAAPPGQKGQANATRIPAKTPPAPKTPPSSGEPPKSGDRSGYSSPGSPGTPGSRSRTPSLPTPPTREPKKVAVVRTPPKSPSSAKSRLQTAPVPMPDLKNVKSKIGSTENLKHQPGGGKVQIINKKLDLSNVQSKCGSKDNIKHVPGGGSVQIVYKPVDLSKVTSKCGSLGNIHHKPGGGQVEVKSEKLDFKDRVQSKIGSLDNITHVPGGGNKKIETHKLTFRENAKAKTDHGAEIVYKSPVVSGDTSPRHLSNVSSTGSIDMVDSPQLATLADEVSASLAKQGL
# Cyclin-dependent kinase inhibitor 1, sequence (P38936 whole entry): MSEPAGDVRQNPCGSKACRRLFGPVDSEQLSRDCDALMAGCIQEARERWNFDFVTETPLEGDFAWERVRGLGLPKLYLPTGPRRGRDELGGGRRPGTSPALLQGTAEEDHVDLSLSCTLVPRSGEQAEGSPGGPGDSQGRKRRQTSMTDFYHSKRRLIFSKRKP
# Lactate dehydrogenase, sequence (Q0PJ46 whole entry): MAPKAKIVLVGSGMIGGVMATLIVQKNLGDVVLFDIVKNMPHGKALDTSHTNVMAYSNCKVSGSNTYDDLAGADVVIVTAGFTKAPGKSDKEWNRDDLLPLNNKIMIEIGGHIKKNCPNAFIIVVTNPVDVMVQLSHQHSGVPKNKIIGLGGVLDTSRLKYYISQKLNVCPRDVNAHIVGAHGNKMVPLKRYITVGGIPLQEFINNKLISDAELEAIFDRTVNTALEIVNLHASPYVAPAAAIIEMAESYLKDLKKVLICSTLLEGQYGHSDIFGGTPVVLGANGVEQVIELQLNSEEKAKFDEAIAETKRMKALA
# c-Myc/c-Max, sequence (P01106 whole entry): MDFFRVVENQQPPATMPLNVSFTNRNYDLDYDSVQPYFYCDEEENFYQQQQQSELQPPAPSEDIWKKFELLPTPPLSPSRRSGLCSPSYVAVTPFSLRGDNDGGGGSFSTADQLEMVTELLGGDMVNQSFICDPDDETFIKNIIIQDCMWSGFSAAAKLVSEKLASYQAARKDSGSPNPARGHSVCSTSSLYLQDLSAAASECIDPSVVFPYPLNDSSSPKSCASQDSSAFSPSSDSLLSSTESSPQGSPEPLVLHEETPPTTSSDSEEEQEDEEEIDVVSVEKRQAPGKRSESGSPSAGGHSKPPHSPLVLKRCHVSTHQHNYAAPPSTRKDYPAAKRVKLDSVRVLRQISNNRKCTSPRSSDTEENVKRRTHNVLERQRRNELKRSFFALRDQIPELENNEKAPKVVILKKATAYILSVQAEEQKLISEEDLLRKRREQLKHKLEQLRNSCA
# c-Myc/c-Max, sequence (P61244 whole entry): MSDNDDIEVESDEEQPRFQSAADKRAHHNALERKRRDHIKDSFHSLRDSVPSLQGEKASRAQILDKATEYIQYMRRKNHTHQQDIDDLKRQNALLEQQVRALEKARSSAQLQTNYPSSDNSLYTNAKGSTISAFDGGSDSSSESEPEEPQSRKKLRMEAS
compound,measurement,setting,value
O=C(Nc1nonc1-c1ccc(Cl)cc1)c1ccc(C(F)(F)F)cc1,EC50,HCT-116,1.3 µM
O=[N+]([O-])c1ccc(Nc2ccc(Cl)cc2)c2nonc12,IC50,[1],2 µM
CC(=O)c1cccc(CC2CCCc3c2[nH]c2ccc(C)cc32)c1 (stereo not drawn),IC50,[2],0.17 µM
Oc1nc2nonc2nc1-c1ccc(F)cc1,MIC,Haemophilus influenzae,4.3 µM
same,MIC,Staphylococcus aureus,280 µM
same,MIC,Streptococcus pneumoniae,280 µM
CCOC(=O)c1ccc(Nc2nc3nonc3nc2Nc2cccc(C)c2C)cc1,IC50,[2],0.76 µM
CC1(C)CC[C@]2(C(=O)O)CC[C@]3(C)C(=CC[C@@H]4[C@@]5(C)Cc6nonc6C(C)(C)[C@@H]5CC[C@]43C)[C@@H]2C1,EC50,K562,0.78 µM
same,half-life,[3],1.5 h
same,EC50,Jurkat,0.29 µM
same,EC50,HEL,> 0.21 µM
CN(C)Cc1ccc(CSCCNc2nonc2N)o1,Ki,Histamine H2 receptor,0.026 µM
Nc1nonc1/C(=N/O)NCc1ccccc1,EC50,HeLa,1 µM
CCn1c(-c2nonc2N)nc2cncc(CNC3CCNCC3)c21,IC50,[4],1.9 µM
same,IC50,[5],0.27 µM
same,IC50,[6],0.155 µM
N#Cc1ccc(CCN2CCN(CCc3ccc4nonc4c3)CC2)cc1,IC50,[7],1.9 µM
O=C1OCc2cc(CCN3CCN(CCc4ccc5nonc5c4)CC3)ccc21,IC50,[7],2.2 µM
Nc1nonc1C(=NO)Nc1ccc(F)c(Cl)c1,EC50,HeLa,0.019 µM
same,CLint scaled,[8],> 2.2 L/h/kg
CN(Cc1ccc(F)cc1)c1cc(C(O)C(F)(F)F)cc2nonc12 (stereo not drawn),inhibition,[9],38%
same,inhibition,[10],78%
O=[N+]([O-])c1ccc(Nc2cccc(F)c2F)c2nonc12,EC50,[11],2.8 µM
Oc1nc2nonc2nc1-c1ccc(Cl)cc1,MIC,Haemophilus influenzae,4 µM
same,MIC,Staphylococcus aureus,64 µM
same,MIC,Streptococcus pneumoniae,0.5 µM
Oc1nc2nonc2nc1-c1ccc(Br)cc1,MIC,Haemophilus influenzae,3.4 µM
same,MIC,Staphylococcus aureus,55 µM
same,MIC,Streptococcus pneumoniae,0.22 µM
CN(C)Cc1ccc(CSCCNc2nonc2NCCCc2ccccc2)o1,Ki,Histamine H2 receptor,0.002 µM
O=c1[nH]ccc2cc(OC3CCNCC3)ccc12 [SAR-407899 FREE BASE],Activity,Rattus norvegicus [12],-19 mmHg
same,IC50,HASMC,0.122 µM
same,Activity,Rattus norvegicus [13],-6 mmHg
O=C(Oc1ccccc1)c1ccccc1Nc1ccc([N+](=O)[O-])c2nonc12,EC50,HL-60,9.6 µM
same,EC50,Daudi,3.1 µM
same,IC50,c-Myc/c-Max,40 µM
CCn1c(-c2nonc2N)nc2cnccc21,IC50,[4],0.033 µM
same,IC50,[5],0.07 µM
same,IC50,[6],0.024 µM
COC1CN(c2cc(-c3cccc(C(O)C(F)(F)F)c3)cc3nonc23)C1 (stereo not drawn),inhibition,[9],51%
same,inhibition,[10],89%
O=C(Nc1ccc(C(F)(F)F)cc1)Nc1nonc1-c1ccc(Cl)cc1,EC50,HCT-116,2.5 µM
O=C(O)c1ccc(-c2cc3cccnc3c(-c3ccc4nonc4c3)n2)cc1,ED50,Rattus norvegicus [14],0.0003 µmol/kg
same,ED50,Mus musculus,0.0076 µmol/kg
same,EC50,[15],0.0676 µM
O=C(O)c1nonc1NCn1nnnc1Cc1cccc(Cl)c1,EC50,BaF3,3 µM
COc1cc2c(cc1OC)CN(Cc1ccc(-c3ccc(OCCOc4nonc4OC)cc3)cc1)CC2,efflux ratio,MDR1,0.6
CC(=O)N[C@@H](CC(=O)O)C(=O)N[C@@H](CCC(=O)O)C(=O)N[C@H](C(=O)N[C@H](C=O)CC(=O)O)C(C)C,EC50,NT2,> 100 µM
O=C(O)c1nsnc1O,IC50,[16],10.3 µM
same,Ki,[17],0.29 µM
same,IC50,Lactate dehydrogenase,0.14 µM
same,EC50,Plasmodium falciparum [18],144 µM
same,EC50,Plasmodium falciparum [19],75.3 µM
same,EC90,Plasmodium falciparum [19],> 170 µM
OC(c1cccc(-c2cc(N3CCCC3)c3nonc3c2)c1)C(F)(F)F (stereo not drawn),inhibition,[20],88.9%
Fc1cc(Br)cc([C@@H]2C[C@H](c3cccc(Br)c3)n3nnnc3N2)c1,IC50,[21],43 µM
same,logP,physchem,4.4
same,Kd,[22],0.023 µM
